Laboratory results from the NIST ThermoML archive (doi:10.1021/je100972k).
Values joined by “and” are separate entries in the source; they are usually repeats but may differ in a detail not shown here. Identical values can stand only once. ± gives the expanded uncertainty stated by the source.

Details: Crystal

[F-].[F-].[F-].[F-].[Zr+4] [zirconium(IV) fluoride]
vapor or sublimation pressure (685 K): 8.13e-06 ± 2.1e-06 kPa | vapor or sublimation pressure (689 K): 8.13e-06 ± 2.1e-06 kPa | vapor or sublimation pressure (690 K): 1.05e-05 ± 2.7e-06 kPa | vapor or sublimation pressure (693 K): 1.05e-05 ± 2.7e-06 kPa and 1.62e-05 ± 4.1e-06 kPa | vapor or sublimation pressure (698.5 K): 1.62e-05 ± 4.1e-06 kPa | vapor or sublimation pressure (699 K): 1.55e-05 ± 3.9e-06 kPa and 2.4e-05 ± 6.1e-06 kPa | vapor or sublimation pressure (704 K): 1.2e-05 ± 3.1e-06 kPa | vapor or sublimation pressure (705 K): 3.24e-05 ± 8.2e-06 kPa | vapor or sublimation pressure (706.5 K): 2.4e-05 ± 6.1e-06 kPa | vapor or sublimation pressure (707 K): 3.09e-05 ± 7.8e-06 kPa | vapor or sublimation pressure (709 K): 3.09e-05 ± 7.8e-06 kPa | vapor or sublimation pressure (709.5 K): 2.82e-05 ± 7.1e-06 kPa | vapor or sublimation pressure (711 K): 4.9e-05 ± 1.2e-05 kPa | vapor or sublimation pressure (711.5 K): 1.62e-05 ± 4.1e-06 kPa | vapor or sublimation pressure (712.5 K): 2.4e-05 ± 6.1e-06 kPa | vapor or sublimation pressure (713 K): 4.17e-05 ± 1e-05 kPa | vapor or sublimation pressure (713.5 K): 3.24e-05 ± 8.2e-06 kPa | vapor or sublimation pressure (715 K): 2.04e-05 ± 5.2e-06 kPa | vapor or sublimation pressure (717 K): 6.46e-05 ± 1.6e-05 kPa and 2.4e-05 ± 6.1e-06 kPa | vapor or sublimation pressure (719 K): 3.63e-05 ± 9.1e-06 kPa | vapor or sublimation pressure (720 K): 4.9e-05 ± 1.2e-05 kPa and 3.47e-05 ± 8.7e-06 kPa and 2.82e-05 ± 7.1e-06 kPa | vapor or sublimation pressure (720.5 K): 5.25e-05 ± 1.3e-05 kPa | vapor or sublimation pressure (721 K): 3.24e-05 ± 8.2e-06 kPa | vapor or sublimation pressure (723.5 K): 4.9e-05 ± 1.2e-05 kPa | vapor or sublimation pressure (724 K): 6.46e-05 ± 1.6e-05 kPa and 4.68e-05 ± 1.2e-05 kPa | vapor or sublimation pressure (724.5 K): 4.68e-05 ± 1.2e-05 kPa | vapor or sublimation pressure (725.5 K): 4.07e-05 ± 1e-05 kPa and 3.63e-05 ± 9.1e-06 kPa | vapor or sublimation pressure (726.5 K): 4.07e-05 ± 1e-05 kPa | vapor or sublimation pressure (728.5 K): 9.33e-05 ± 2.3e-05 kPa and 0.000112 ± 2.8e-05 kPa | vapor or sublimation pressure (729 K): 6.46e-05 ± 1.6e-05 kPa | vapor or sublimation pressure (729.5 K): 8.91e-05 ± 2.2e-05 kPa | vapor or sublimation pressure (730 K): 8.32e-05 ± 2.1e-05 kPa and 6.92e-05 ± 1.7e-05 kPa | vapor or sublimation pressure (731.5 K): 5.62e-05 ± 1.4e-05 kPa and 4.9e-05 ± 1.2e-05 kPa | vapor or sublimation pressure (732 K): 6.92e-05 ± 1.7e-05 kPa and 5.62e-05 ± 1.4e-05 kPa | vapor or sublimation pressure (734.5 K): 0.000112 ± 2.8e-05 kPa | vapor or sublimation pressure (735 K): 8.91e-05 ± 2.2e-05 kPa | vapor or sublimation pressure (735.5 K): 0.000162 ± 4.1e-05 kPa | vapor or sublimation pressure (736 K): 0.00012 ± 3e-05 kPa and 9.33e-05 ± 2.3e-05 kPa | vapor or sublimation pressure (737 K): 0.000117 ± 2.9e-05 kPa and 8.13e-05 ± 2e-05 kPa and 6.46e-05 ± 1.6e-05 kPa | vapor or sublimation pressure (737.5 K): 0.000145 ± 3.6e-05 kPa and 7.24e-05 ± 1.8e-05 kPa | vapor or sublimation pressure (739.5 K): 0.000135 ± 3.4e-05 kPa | vapor or sublimation pressure (740.5 K): 0.000155 ± 3.9e-05 kPa and 9.33e-05 ± 2.3e-05 kPa | vapor or sublimation pressure (741 K): 0.000112 ± 2.8e-05 kPa | vapor or sublimation pressure (742 K): 0.000219 ± 5.5e-05 kPa | vapor or sublimation pressure (743 K): 0.000141 ± 3.5e-05 kPa and 0.000105 ± 2.6e-05 kPa and 8.91e-05 ± 2.2e-05 kPa | vapor or sublimation pressure (743.5 K): 0.000162 ± 4.1e-05 kPa and 9.77e-05 ± 2.4e-05 kPa | vapor or sublimation pressure (746.5 K): 0.000224 ± 5.6e-05 kPa and 0.000209 ± 5.2e-05 kPa and 0.000204 ± 5.1e-05 kPa | vapor or sublimation pressure (748 K): 0.000162 ± 4.1e-05 kPa | vapor or sublimation pressure (748.5 K): 0.000282 ± 7.1e-05 kPa and 0.00012 ± 3e-05 kPa | vapor or sublimation pressure (749 K): 0.000151 ± 3.8e-05 kPa and 0.000129 ± 3.2e-05 kPa | vapor or sublimation pressure (750 K): 0.000145 ± 3.6e-05 kPa | vapor or sublimation pressure (750.5 K): 0.000209 ± 5.2e-05 kPa | vapor or sublimation pressure (751 K): 0.00024 ± 6e-05 kPa | vapor or sublimation pressure (751.5 K): 0.000251 ± 6.3e-05 kPa | vapor or sublimation pressure (753 K): 0.000209 ± 5.2e-05 kPa and 0.000158 ± 4e-05 kPa | vapor or sublimation pressure (754 K): 0.000324 ± 8.1e-05 kPa and 0.000209 ± 5.2e-05 kPa | vapor or sublimation pressure (754.5 K): 0.000372 ± 9.3e-05 kPa and 0.00017 ± 4.3e-05 kPa | vapor or sublimation pressure (755 K): 0.000178 ± 4.5e-05 kPa | vapor or sublimation pressure (756 K): 0.000288 ± 7.2e-05 kPa and 0.000417 ± 0.0001 kPa and 0.000302 ± 7.6e-05 kPa | vapor or sublimation pressure (756.5 K): 0.000302 ± 7.6e-05 kPa | vapor or sublimation pressure (757 K): 0.000302 ± 7.6e-05 kPa | vapor or sublimation pressure (757.5 K): 0.000251 ± 6.3e-05 kPa | vapor or sublimation pressure (758 K): 0.000195 ± 4.9e-05 kPa | vapor or sublimation pressure (759 K): 0.000257 ± 6.4e-05 kPa | vapor or sublimation pressure (760 K): 0.000234 ± 5.9e-05 kPa and 0.000219 ± 5.5e-05 kPa | vapor or sublimation pressure (760.5 K): 0.000363 ± 9.1e-05 kPa | vapor or sublimation pressure (763 K): 0.000513 ± 0.00013 kPa [middle of 4 runs] | vapor or sublimation pressure (764 K): 0.000234 ± 5.9e-05 kPa | vapor or sublimation pressure (765 K): 0.000347 ± 8.7e-05 kPa | vapor or sublimation pressure (765.5 K): 0.000302 ± 7.6e-05 kPa | vapor or sublimation pressure (766 K): 0.000468 ± 0.00012 kPa [middle of 5 runs] | vapor or sublimation pressure (766.5 K): 0.000457 ± 0.00011 kPa | vapor or sublimation pressure (769 K): 0.000741 ± 0.00018 kPa and 0.000437 ± 0.00011 kPa | vapor or sublimation pressure (770.5 K): 0.000447 ± 0.00011 kPa | vapor or sublimation pressure (771.5 K): 0.000363 ± 9.1e-05 kPa | vapor or sublimation pressure (772 K): 0.000537 ± 0.00013 kPa and 0.000407 ± 0.0001 kPa | vapor or sublimation pressure (773 K): 0.000417 ± 0.0001 kPa | vapor or sublimation pressure (774 K): 0.000891 ± 0.00022 kPa and 0.000427 ± 0.00011 kPa | vapor or sublimation pressure (775 K): 0.000646 ± 0.00016 kPa | vapor or sublimation pressure (777.5 K): 0.000603 ± 0.00015 kPa | vapor or sublimation pressure (778 K): 0.000525 ± 0.00013 kPa and 0.000501 ± 0.00013 kPa | vapor or sublimation pressure (779 K): 0.000724 ± 0.00018 kPa | vapor or sublimation pressure (781 K): 0.00055 ± 0.00014 kPa | vapor or sublimation pressure (783 K): 0.000646 ± 0.00016 kPa | vapor or sublimation pressure (783.5 K): 0.000933 ± 0.00023 kPa | vapor or sublimation pressure (784 K): 0.000813 ± 0.0002 kPa | vapor or sublimation pressure (785 K): 0.000646 ± 0.00016 kPa | vapor or sublimation pressure (786 K): 0.001 ± 0.00025 kPa | vapor or sublimation pressure (788 K): 0.00145 ± 0.00036 kPa | vapor or sublimation pressure (789 K): 0.000813 ± 0.0002 kPa | vapor or sublimation pressure (789.5 K): 0.00102 ± 0.00026 kPa | vapor or sublimation pressure (791 K): 0.000977 ± 0.00024 kPa | vapor or sublimation pressure (792 K): 0.00129 ± 0.00032 kPa | vapor or sublimation pressure (793 K): 0.00129 ± 0.00032 kPa | vapor or sublimation pressure (794 K): 0.00105 ± 0.00026 kPa | vapor or sublimation pressure (798 K): 0.00148 ± 0.00037 kPa and 0.00123 ± 0.00031 kPa and 0.00126 ± 0.00032 kPa | vapor or sublimation pressure (799 K): 0.00234 ± 0.00059 kPa | vapor or sublimation pressure (801 K): 0.00186 ± 0.00047 kPa and 0.0017 ± 0.00043 kPa | vapor or sublimation pressure (802 K): 0.00155 ± 0.00039 kPa | vapor or sublimation pressure (803 K): 0.00166 ± 0.00042 kPa | vapor or sublimation pressure (803.5 K): 0.00186 ± 0.00047 kPa | vapor or sublimation pressure (807 K): 0.00209 ± 0.00052 kPa | vapor or sublimation pressure (808 K): 0.00295 ± 0.00074 kPa | vapor or sublimation pressure (810.5 K): 0.0024 ± 0.0006 kPa | vapor or sublimation pressure (811 K): 0.00275 ± 0.00069 kPa and 0.00209 ± 0.00052 kPa | vapor or sublimation pressure (815 K): 0.00295 ± 0.00074 kPa | vapor or sublimation pressure (818 K): 0.00389 ± 0.00097 kPa | vapor or sublimation pressure (821 K): 0.0038 ± 0.00095 kPa | vapor or sublimation pressure (823 K): 0.00617 ± 0.0015 kPa | vapor or sublimation pressure (828 K): 0.00562 ± 0.0014 kPa
